Measurements reported in paper PMC9043818, “Coordination complexes of zinc and manganese based on pyridine-2,5-dicarboxylic acid N-oxide: DFT studies and antiproliferative activities consideration” (RSC Advances, 2021).
Like-named read-outs stand apart in the source and are kept apart here.

Columns and labels:
[1] = tested on: human breast cancer cells MCF-7; assay: MTT antiproliferative assay, MCF-7; assay type: cell-based; details: mean ± SD
Procedure: (§1) Human breast cancer cells MDA-MD-231 (ATCC HTB-26), human breast cancer cells MCF-7 (ATCC HTB-22), human cervix epithelial carcinoma HeLa (ATCC CCL-2), human colon cancer cell line HT-29 (ATCC HTB-38), mouse neuroblastoma cell line Neuro-2a (ATCC CCL-131) and mouse fibroblast L-929 cell line (ATCC CCL-1) were obtained from the American Type Culture Collection (ATCC; Manassas, VA, USA) and cultured at 37 °C in a humidified atmosphere of 5% CO2 in air. HeLa cells were cultured in Dulbecco's Modified Eagle's Medium (DMEM) with 0.1 mM nonessential amino acids, 2 mM L-glutamine, 1.0 mM sodium pyruvate and 5% fetal bovine serum, at 37 °C in an atmosphere of 5% CO2. Cells were plated in 96-well sterile plates at a density of 1 × 10^4 cells per well in 100 μL of medium and incubated for 24 h. Also MDA-MD-231, HT-29, MCF-7 and Neuro-2a were cultured in DMEM containing 10% fetal bovine serum, 100 units per ml of penicillin and 100 μg ml^−1 of streptomycin. L-929 cells were cultured in RPMI-1640 medium containing 10% fetal bovine serum, 100 units per ml of penicillin and 100 μg ml^−1 of streptomycin.
(§2) Complexes 1–3 ([Mn2(pydco)2(bpy)2(H2O)2]·2H2O (1), [Zn(bpy)(Hpydco)2] (2) and [Zn(bpy)Cl(Hpydco)]·2H2O (3)) were screened for antiproliferative activity against human breast cancer cells (MDA-MD-231), human cervix epithelial carcinoma (HeLa), human colon cancer cell line (HT-29), human breast cancer cells (MCF-7), mouse neuroblastoma cell line (Neuro-2a) and mouse fibroblast L-929 cell line using cisplatin as a comparative standard. Cell viability was evaluated by a colorimetric method based on the tetrazolium salt MTT ([3-(4,5-dimethylthiazol-2-yl)-2,5-diphenyltetrazolium bromide]), which is reduced by living cells to yield purple formazan crystals. Cells were seeded in 96-well plates at a density of 2–5 × 10^4 cells of MDA-MD-231, MCF-7, HeLa, HT-29, Neuro-2a and L-929 per well in 200 μL of culture medium and left to incubate overnight for optimal adherence. After careful removal of the medium, 200 μL of a dilution series of the complexes in fresh medium were added and incubation was performed at 37 °C/5% CO2 for 72 h. Complexes 1–3 were first solubilized in DMSO, diluted in medium and added to the cells in final concentrations between 20 nM and 200 μM. […] Cisplatin was first solubilized in saline and then added at the same concentrations used for the other complexes. At the end of the incubation period, the complexes were removed, and the cells were incubated with 200 μL of MTT solution (500 μg ml^−1). After 3–4 h at 37 °C/5% CO2, the medium was removed, and the purple formazan crystals were dissolved in 200 μL of DMSO by shaking. The cell viability was evaluated by measurement of the absorbance at 570 nm by using a STAT FAX-2100 microplate reader (Awareness Technology, Palm City, FL, USA). The cell viability was calculated by dividing the absorbance of each well by that of the control wells (cells treated with medium containing 1% DMSO). Each experiment was repeated at least three times and each point was determined in at least three replicates.
(§3) IC50 values are expressed as mean ± standard deviation (SD) from at least three independent experiments. Statistical tests including One way ANOVA, Tukey multiple comparison or unpaired Student's t-tests were performed using SPSS, ver.17 software. A p value of less than 0.05 was considered as significant.

[2] = tested on: human breast cancer cells MDA-MD-231; assay: MTT antiproliferative assay, MDA-MD-231; assay type: cell-based; details: 72 h incubation, mean ± SD
Procedure: as §1, §2, §3

[3] = tested on: human colon cancer cell line HT-29; assay: MTT antiproliferative assay, HT-29; assay type: cell-based; details: mean ± SD
Procedure: as §1, §2, §3

[4] = tested on: human cervix epithelial carcinoma HeLa; assay: MTT antiproliferative assay, HeLa; assay type: cell-based; details: 72 h incubation, mean ± SD
Procedure: as §1, §2, §3

[5] = tested on: mouse neuroblastoma cell line Neuro-2a; assay: MTT antiproliferative assay, Neuro-2a; assay type: cell-based; details: 72 h incubation, mean ± SD
Procedure: as §1, §2, §3

[6] = tested on: mouse fibroblast L-929 cell line; assay: MTT assay, normal cell line L929; assay type: cell-based; details: IC50 > 100 μM considered inactive, read-out: IC50 ± SD L929
Procedure: as §1, §2, §3

[7] = tested on: MDA-MB-231 cancer cell line; assay: Apoptosis assay by flow cytometry (Annexin V-FITC/PI); assay type: cell-based, human; details: for Apoptotic cells (%) / Late apoptotic/necrotic cells (%) / Necrotic cells (%) / Vital cells (%): MDA-MD-231, 24 h; for Apoptotic cells (%) / Late apoptotic/necrotic cells (%) / Necrotic cells (%) / Vital cells (%) / induction of apoptosis (flow cytometry): concentration close to the IC50; for induction of apoptosis (flow cytometry): MDA-MB-231, 24 h; for population of apoptotic cell, fold higher than cisplatin: at the same concentration as cisplatin
Procedure: In order to study in which way 1–3 produced the cellular death (necrosis or apoptosis) studies of flow cytometry were performed on the complexes and cisplatin as a reference. Four areas in the diagrams stand for necrotic cells (Q1, low Annexin V-FITC and high PI signal, left square on the top), late apoptosis or necrosis cells (Q2, high Annexin V-FITC and high PI signal, right square on the top), live cells (Q3, low Annexin V-FITC and low PI signal, left square at the bottom), apoptosis cells (Q4, high Annexin V-FITC and low PI signal, right square at the bottom), respectively.

[8] = tested on: MDA-MB-231 breast cancer cells; assay: TUNEL assay (dUTP-FITC, confocal microscopy); assay type: cell-based, human; details: MDA-MB-231, 24 h, vs 0.3% DMSO controls
Procedure: Analysis of apoptosis for 2 and 3 by cytometry using TUNEL assay. Also, apoptosis was detected using an in situ cell death detection kit (Boehringer Mannheim Corp., Indianapolis, IN) as described by Narla et al. and Zhu et al. (Narla et al., 2000;[42] Zhu et al., 1998 (ref. [43])). Cells were incubated with 1–3 in 0.3% DMSO or 1 : […], permeabilized and incubated with the reaction mixture containing TdT- and FITC-conjugated dUTP, and counterstained with propidium iodide. Cells were transferred to slides and viewed with a confocal laser scanning microscope (Bio-Rad MRC 1024) mounted on a Nikon Eclipse E800 series upright microscope as reported previously (Narla et al., 2000;[42] Zhu et al., 1998 (ref. [43])).

[9] = tested on: MDA-MD-231, MCF-7, HeLa, HT-29, Neuro-2a and L-929 cell lines; assay: MTT assay, range over all cell lines; assay type: cell-based; details: 72 h, all six cell lines, read-out: IC50 values, span over all cell lines
Procedure: Human breast cancer cells MDA-MD-231 (ATCC HTB-26), human breast cancer cells MCF-7 (ATCC HTB-22), human cervix epithelial carcinoma HeLa (ATCC CCL-2), human colon cancer cell line HT-29 (ATCC HTB-38), mouse neuroblastoma cell line Neuro-2a (ATCC CCL-131) and mouse fibroblast L-929 cell line (ATCC CCL-1) were obtained from the American Type Culture Collection (ATCC; Manassas, VA, USA) and cultured at 37 °C in a humidified atmosphere of 5% CO2 in air. HeLa cells were cultured in Dulbecco's Modified Eagle's Medium (DMEM) with 0.1 mM nonessential amino acids, 2 mM L-glutamine, 1.0 mM sodium pyruvate and 5% fetal bovine serum, at 37 °C in an atmosphere of 5% CO2. […]
Complexes 1–3 ([Mn2(pydco)2(bpy)2(H2O)2]·2H2O (1), [Zn(bpy)(Hpydco)2] (2) and [Zn(bpy)Cl(Hpydco)]·2H2O (3)) were screened for antiproliferative activity against human breast cancer cells (MDA-MD-231), human cervix epithelial carcinoma (HeLa), human colon cancer cell line (HT-29), human breast cancer cells (MCF-7), mouse neuroblastoma cell line (Neuro-2a) and mouse fibroblast L-929 cell line using cisplatin as a comparative standard. Cell viability was evaluated by a colorimetric method based on the tetrazolium salt MTT ([3-(4,5-dimethylthiazol-2-yl)-2,5-diphenyltetrazolium bromide]), which is reduced by living cells to yield purple formazan crystals. […]

[10] = experiment for 2 (Table 4), 2 and cisplatin at the same concentration
[11] = experiment for 3 (Table 5), 3 and cisplatin at the same concentration, MDA-MB-231
[12] = Homo sapiens, MCF7, 72 h incubation
[13] = Homo sapiens, HT-29, 72 h incubation
[14] = Mus musculus, L929, 72 h incubation

Compound | IC50 ([1]; 72 h incubation) [µM] | IC50 [2] [µM] | IC50 ([3]; 72 h incubation) [µM] | IC50 [4] [µM] | IC50 [5] [µM] | IC50 ([6]; 72 h incubation) [µM] | population of apoptotic cell (apoptotic + late apoptotic) [7, 10] [%] | Apoptotic cells (%) ([7]; experiment for 2) | Late apoptotic/necrotic cells (%) ([7]; experiment for 2) | Necrotic cells (%) ([7]; experiment for 2) | Vital cells (%) ([7]; experiment for 2) | population of apoptotic cell (apoptotic + late apoptotic) [7, 11] [%] | Apoptotic cells (%) ([7]; experiment for 3) | Late apoptotic/necrotic cells (%) ([7]; experiment for 3) | Necrotic cells (%) ([7]; experiment for 3) | Vital cells (%) ([7]; experiment for 3) | IC50 [1, 12] [µM] | IC50 ([2]; Homo sapiens) [µM] | IC50 [3, 13] [µM] | IC50 ([4]; Homo sapiens, HeLa) [µM] | further results
N.N.[Cl][Pt][Cl] [Cisplatin, cisplatin, reference compound] | 5.94 ± 1.47 | 24.7 ± 4.71 | 19.3 ± 3.46 | 0.45 ± 0.13 | 103 ± 9.8 | 0.7 ± 0.2 | 65.28 | 34.65 | 30.63 | 0.98 | 33.74 | 35.8 | 15.80 | 20.00 | 3.20 | 61.00 |  |  |  |  | 
O=C(O)c1ccc(C(=O)O)[n+]([O-])c1 [Complex H2pydco, pyridine-2,5-dicarboxylic acid N-oxide] |  |  |  |  |  |  |  |  |  |  |  |  |  |  |  |  | 57.9 ± 5.33 | 45.7 ± 4.75 | 58.9 ± 5.01 | 67.1 ± 5.45 | IC50 ([5]; mouse/rat NG108-15, N2a): > 100 µM; IC50 [6, 14]: > 100 µM
c1ccc(-c2ccccn2)nc1 [bpy, 2,2′-bipyridine, reference compound] |  |  |  |  |  |  |  |  |  |  |  |  |  |  |  |  | 51.3 ± 4.78 | 24.9 ± 1.98 | 67.8 ± 5.54 | 46.5 ± 4.03 | IC50 ([5]; mouse/rat NG108-15, N2a): 97.3 ± 8.7 µM; IC50 [6, 14]: > 100 µM
[Mn2(pydco)2(bpy)2(H2O)2]·2H2O [Complex 1] | 56.6 ± 7.78 | 28.9 ± 2.47 | 57.9 ± 4.71 | 39.2 ± 2.98 | 79.5 ± 8.44 | > 100 |  |  |  |  |  |  |  |  |  |  |  |  |  |  | 
[Zn(bpy)(Hpydco)2] [Complex 2] | 15.6 ± 3.24 | 5.94 ± 1.98 | 17.3 ± 2.57 | 41.2 ± 5.07 | 81.2 ± 9.28 | > 100 | 79.45 | 43.91 | 35.54 | 0.82 | 19.73 |  |  |  |  |  |  |  |  |  | induction of apoptosis (flow cytometry) [7]: could induce apoptosis; population of apoptotic cell, fold higher than cisplatin ([7]; MDA-MB-231): ~1.2 fold; induction of apoptosis (TUNEL, apoptotic nuclei) [8]: induce apoptosis; IC50 [9]: 5.94 to 100 µM
[Zn(bpy)Cl(Hpydco)]·2H2O [Complex 3] | 17.9 ± 2.66 | 9.18 ± 2.25 | 14.6 ± 3.55 | 37.6 ± 4.61 | 87.7 ± 6.93 | > 100 |  |  |  |  |  | 63.3 | 4.30 | 59.00 | 4.70 | 32.00 |  |  |  |  | induction of apoptosis (flow cytometry) [7]: could induce apoptosis; population of apoptotic cell, fold higher than cisplatin ([7]; MDA-MB-231): ~1.8 fold; induction of apoptosis (TUNEL, apoptotic nuclei) [8]: induce apoptosis; IC50 [9]: 5.94 to 100 µM
